Earlier results as cited in patent EP1558263B1, “PROLONGED RELEASE PHARMACEUTICAL COMPOSITION” (Akzo Nobel N.V., priority 2002, dated 2004).
Values after ≈ are worked out from the molar mass of the structure shown.

Test system: Mannheimia haemolytica
Settings: pathogen of respiratory tract infections in cattle

CO/N=C(\C(=O)N[C@@H]1C(=O)N2C(C(=O)[O-])=C(C[n+]3cccc4c3CCCC4)CS[C@H]12)c1csc(N)n1 [Cefquinome, cefquinome]
MIC90: 0.25 µg/mL (≈ 0.473 µM)
